Results on 44 molecules are retold here after patent US20080090805A1, “CB-1 MODULATING COMPOUNDS AND THEIR USE” (ACADIA PHARMACEUTICALS INC., priority 2005, published 2008).

As a reminder, the % Inhibition is the share of the control response that was lost under treatment. Usually pIC50 stands for −log10 of the IC50, conventionally taken in molar units. High values mean a low IC50, low ones a high IC50.

SMILES strings stand for the structures. Like-named read-outs stand apart in the source and are kept apart here.

This assay addresses CB1 (mutant) (Homo sapiens, UniProt P21554). Nature of the assay: R-SAT functional receptor assay, CB1 (mutant, truncated after amino acid 417). Particulars: R-SAT CB1; for Emax / % Inhibition: receptor form not stated, relative to SR141716 (100%); for Emax: read-out: % Inhibition. It counts as cell-based.
Setting [1] is: Appendix A, receptor form (mutant or wild-type) not stated, read-out: pIC50 (converted).
The mark [2] stands for this setting: pIC50, Appendix A, receptor form (mutant or wild-type) not stated.

CB1 (mutant), sequence (P21554 1-417, change not shown): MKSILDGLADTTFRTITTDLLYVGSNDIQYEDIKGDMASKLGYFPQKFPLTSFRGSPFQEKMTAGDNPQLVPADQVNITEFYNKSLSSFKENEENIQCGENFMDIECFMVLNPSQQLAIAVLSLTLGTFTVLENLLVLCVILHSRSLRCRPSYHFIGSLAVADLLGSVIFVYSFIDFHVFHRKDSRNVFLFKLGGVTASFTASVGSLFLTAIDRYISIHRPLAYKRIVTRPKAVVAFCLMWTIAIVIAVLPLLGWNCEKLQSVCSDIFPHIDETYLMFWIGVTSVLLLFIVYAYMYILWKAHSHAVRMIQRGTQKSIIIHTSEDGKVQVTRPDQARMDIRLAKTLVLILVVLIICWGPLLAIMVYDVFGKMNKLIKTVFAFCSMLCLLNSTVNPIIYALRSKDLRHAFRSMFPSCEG

In the case of `Cc1csc(CNC(=O)c2ccc3c(c2)N=C(c2cccc(C)n2)c2ccccc2S3)c1` [drawing 561], under setting [1], the IC50 was 2.51 nM. Moreover, the Emax (Appendix A) came out at 85%.

Take `O=C(NC1CCCCC1)c1ccc2c(c1)N=C(c1ccc(Cl)cc1)c1ccccc1S2` [drawing 844]: under setting [1], the IC50 is 158 nM. Moreover, the “% Inhibition” value (Appendix A) was determined as 97%. For the molecule `O=C(NCc1cccs1)c1ccc2c(c1)N=C(c1ccc(F)cc1)c1ccccc1S2` [drawing 571], the IC50 under setting [1] is 2.51 nM. In addition, the Emax (Appendix A) was 97%. Take `O=C(NCc1ccco1)c1ccc2c(c1)N=C(c1cccc(Cl)c1)c1ccccc1S2` [drawing 583]: the IC50 under setting [1] was 3.16 nM. Moreover, the Emax (Appendix A) worked out at 100%.

For the molecule `CCCCNC(=O)c1ccc2c(c1)N=C(c1ccc(Cl)s1)c1cc(F)ccc1S2` [drawing 873], the IC50 under setting [1] is 15.8 nM. For the same molecule, under “Appendix A”, the Emax came to 99%. Taken in the same sequence, the figures for `O=C(NCCc1ccc(Cl)cc1)c1ccc2c(c1)N=C(N1CCCCC1)c1ccccc1S2` [drawing 775] were 10 nM and 113%.

For `O=C(NC1CCCCC1)c1ccc2c(c1)N=C(c1ccc(F)cc1)c1ccccc1S2` [drawing 1065], the IC50 under setting [1] is 31.6 nM. Moreover, the Emax (Appendix A) turned out to be 111%. For `COCCNC(=O)c1ccc2c(c1)N=C(c1ccc(Cl)cc1F)c1ccccc1S2`, under setting [1], the IC50 was 63.1 nM. In addition, where the note is “Appendix A”, the Emax was 104%.

As to `O=C(NN1CCCCCC1)c1ccc2c(c1)N=C(c1ccc(Cl)cc1F)c1ccccc1S2` [drawing 867], the IC50 under setting [1] is 15.8 nM. Also, under “Appendix A”, the Emax is 102%. As for `CCCCNC(=O)c1ccc2c(c1)N=C(c1ncccc1C)c1ccccc1S2`, under “Appendix A”, the Emax is 85%.

Turning to `CCOC(=O)c1ccc(C2=Nc3cc(C(=O)NNC(=O)Cc4ccccc4)ccc3Sc3ccccc32)cc1`, the IC50 under setting [1] is 3160 nM. Also, for the setting “Appendix A”, the Emax was determined as 61%. `CON(C)C(=O)c1ccc2c(c1)N=C(c1ccccc1Cl)c1ccccc1S2` showed a pIC50 (Appendix A, receptor form (mutant or wild-type) not stated) of 1.0. Besides, under “Appendix A”, the Emax worked out at 10%. With `O=C(NNCC(F)(F)F)c1ccc2c(c1)N=C(c1ccc(Cl)cc1)c1ccccc1S2` [drawing 816], the Emax (Appendix A) is 81%.

As for `O=C(c1ccc2c(c1)N=C(c1ccc(Cl)cc1)c1ccccc1S2)N1CCCCC1`, the Emax (Appendix A) turned out to be 95%. Besides, under setting [2], the IC50 is 31.6 nM. Regarding `CCCCN(C)C(=O)c1ccc2c(c1)N=C(c1ccc(Cl)s1)c1ccccc1S2`, the IC50 under setting [1] is 100 nM. Moreover, for the setting “Appendix A”, the Emax was 87%.

For the molecule `Cc1ccsc1C1=Nc2cc(C(=O)NCc3cccnc3)ccc2Sc2ccccc21`, the IC50 under setting [1] was 100 nM. In addition, under “Appendix A”, the Emax was 102%.

Consider `CCCCNC(=O)c1ccc2c(c1)N=C(c1ccccc1OC)c1ccccc1S2`, for which, under setting [1], the IC50 is 251 nM. The Emax (Appendix A) is 80%. For the molecule `O=C(NCc1cccc(Cl)c1)c1ccc2c(c1)N=C(c1cccc(Cl)c1)c1ccccc1S2` [drawing 603], the IC50 under setting [1] was 3.98 nM. The Emax (Appendix A) was determined as 112%. In the case of `O=C(NN1CCCCCC1)c1ccc2c(c1)N=C(c1cccc(F)c1)c1ccccc1S2` [drawing 883], the “% Inhibition” value (Appendix A) came out at 96%. Under setting [2], this molecule showed an IC50 of 15.8 nM. With `CCONC(=O)c1ccc2c(c1)N=C(c1cccc(F)c1)c1ccccc1S2`, the IC50 under setting [1] was 200 nM. For the same molecule, for the setting “Appendix A”, the Emax is 81%. For the molecule `O=C(NN1CCCC1)c1ccc2c(c1)N=C(c1cccc(F)c1)c1ccccc1S2`, where the note is “Appendix A”, the Emax was 67%.

With `CCN(CCNC(=O)c1ccc2c(c1)N=C(c1ccc(F)cc1)c1ccccc1S2)c1ccccc1` [drawing 773], under setting [1], the IC50 was 10 nM. Further, the Emax (Appendix A) turned out to be 99%. Taken in the same sequence, the figures for `O=C(NCCc1cccnc1)c1ccc2c(c1)N=C(c1ccc(Cl)cc1)c1ccccc1S2` [drawing 638] were 63.1 nM and 116%. For `NS(=O)(=O)c1ccc(CNC(=O)c2ccc3c(c2)N=C(c2ccc(Cl)cc2)c2ccccc2S3)cc1` [drawing 746], under setting [1], the IC50 was 79.4 nM. Further, the Emax (Appendix A) stood at 76%. For `CCCC1=Nc2cc(C(=O)N3CCc4ccccc4C3)ccc2Sc2ccccc21`, the IC50 under setting [1] was 631 nM. Also, the Emax (Appendix A) was 95%. Taken in the same sequence, the figures for `CCOCCNC(=O)c1ccc2c(c1)N=C(c1cccc(Br)c1)c1ccccc1S2` [drawing 789] were 10 nM and 119%. For `CCCCNC(=O)c1ccc2c(c1)N=C(c1ccc(Cl)cc1)c1cc(Cl)ccc1S2` [drawing 556] the same measures were 50.1 nM and 112%. Taken in the same sequence, the figures for `O=C(NN1CCCCC1)c1ccc2c(c1)N=C(N1CCCCC1)c1ccccc1S2` [drawing 610] were 50.1 nM and 104%. `CC(C)NC(=O)c1ccc2c(c1)N=C(c1ccc(Cl)cc1)c1ccccc1S2` [drawing 576]: the IC50 under setting [1] is 50.1 nM. The Emax (Appendix A) was found to be 98%. As to `O=C(NCc1ccncc1)c1ccc2c(c1)N=C(c1ccc(Cl)cc1)c1ccccc1S2` [drawing 696], the IC50 under setting [1] is 79.4 nM. Besides, the Emax (Appendix A) stood at 105%. As for `CCN(CCNC(=O)c1ccc2c(c1)N=C(c1ccc(Cl)cc1)c1ccccc1S2)c1ccccc1` [drawing 635], the IC50 under setting [1] is 5.01 nM. Further, the Emax (Appendix A) was 102%. Taken in the same sequence, the figures for `CCCC1=Nc2cc(C(=O)NCCC3=CCCCC3)ccc2Sc2ccccc21` were 50.1 nM and 118%. For the molecule `CCCC1=Nc2cc(C(=O)NCCc3ccccc3)ccc2Sc2ccccc21`, the IC50 under setting [1] was 794 nM. In addition, for the setting “Appendix A”, the Emax stood at 98%. For the molecule `CC(CNC(=O)c1ccc2c(c1)N=C(c1ccc(Cl)cc1)c1ccccc1S2)c1ccccc1` (stereo not shown) [drawing 933], the IC50 under setting [1] was 20 nM. For the same molecule, the Emax (Appendix A) stood at 106%. For `O=C(NCc1cccs1)c1ccc2c(c1)N=C(c1ccccn1)c1ccccc1S2` [drawing 1037] the same measures were 25.1 nM and 118%.

Consider `O=C(NCc1ccc(Cl)cc1Cl)c1ccc2c(c1)N=C(c1ccc(F)cc1)c1ccccc1S2` [drawing 1057], for which the IC50 under setting [1] is 31.6 nM. For the same molecule, under “Appendix A”, the Emax was 96%. For `O=C(NCc1cccs1)c1ccc2c(c1)N=C(c1ccccc1F)c1ccccc1S2` [drawing 795] the same measures were 10 nM and 114%. For `CCCC1=Nc2cc(C(=O)NCCCN3CCC(c4cc(Cl)ccc4C)CC3)ccc2Sc2ccccc21` the same measures were 316 nM and 117%. Taken in the same sequence, the figures for `CCCC1=Nc2cc(C(=O)NCc3ccc4c(c3)OCO4)ccc2Sc2ccc(C)cc21` were 1580 nM and 77%. As for `CCCCNC(=O)c1ccc2c(c1)N=C(c1ccc(Cl)s1)c1ccc(Cl)cc1S2` [drawing 1109], the IC50 under setting [1] is 39.8 nM. Further, for the setting “Appendix A”, the Emax came to 104%. In the case of `CCCCNC(=O)c1cc2c(cc1C)Sc1ccccc1C(c1ccc(Cl)cc1)=N2` [drawing 630], the Emax (Appendix A) was determined as 94%. This molecule gave an IC50 under setting [2] of 63.1 nM. For `O=C(NCc1ccncc1)c1ccc2c(c1)N=C(c1ccc(Br)cc1)c1ccccc1S2` [drawing 586] the same measures were 84% and 50.1 nM.

With `O=C(NCc1ccc(F)cc1)c1ccc2c(c1)N=C(c1ccccc1F)c1ccccc1S2` [drawing 925], the IC50 under setting [1] is 15.8 nM. The Emax (Appendix A) came to 102%. Taken in the same sequence, the figures for `Cc1ccc(CNC(=O)c2ccc3c(c2)N=C(c2sccc2C)c2ccccc2S3)o1` [drawing 953] were 20 nM and 79%.
